Common to all, as to assay: Kinase panel (mobility shift)
Format in all cases: biochemical

In assay [1] the target is T1, DDR2 (Homo sapiens, UniProt Q16832).
T1 sequence (Q16832 22-855): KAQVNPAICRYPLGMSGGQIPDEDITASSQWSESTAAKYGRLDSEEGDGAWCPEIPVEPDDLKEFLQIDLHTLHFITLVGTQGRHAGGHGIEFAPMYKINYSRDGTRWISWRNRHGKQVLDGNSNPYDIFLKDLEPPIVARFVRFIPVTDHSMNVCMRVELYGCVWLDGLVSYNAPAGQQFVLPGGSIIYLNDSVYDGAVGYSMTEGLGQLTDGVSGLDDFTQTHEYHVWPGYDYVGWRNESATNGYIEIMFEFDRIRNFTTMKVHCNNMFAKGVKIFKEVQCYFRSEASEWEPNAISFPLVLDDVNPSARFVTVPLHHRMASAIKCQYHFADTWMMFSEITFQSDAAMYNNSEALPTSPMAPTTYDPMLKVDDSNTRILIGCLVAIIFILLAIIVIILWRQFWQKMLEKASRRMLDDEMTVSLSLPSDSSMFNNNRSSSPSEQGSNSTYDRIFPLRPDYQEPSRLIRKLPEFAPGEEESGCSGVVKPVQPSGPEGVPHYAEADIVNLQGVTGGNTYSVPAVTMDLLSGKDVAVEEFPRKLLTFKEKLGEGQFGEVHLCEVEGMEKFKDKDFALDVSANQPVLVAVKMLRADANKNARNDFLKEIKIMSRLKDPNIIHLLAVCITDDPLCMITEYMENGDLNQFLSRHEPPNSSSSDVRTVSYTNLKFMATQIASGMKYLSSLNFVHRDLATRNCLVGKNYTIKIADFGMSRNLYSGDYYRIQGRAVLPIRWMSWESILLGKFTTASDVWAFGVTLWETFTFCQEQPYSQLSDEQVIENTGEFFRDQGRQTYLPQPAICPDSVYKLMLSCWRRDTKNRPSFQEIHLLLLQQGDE
The method, boiled down: (§1)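 Compound at 5 um + kinase + fluor-labeled substrate, standardized mix; rxn stopped; electrophoretic separation of product/substrate on chip; activity = product vs substrate peak fluorescence. Bins A ≥95%, B 90-94%, C 80-89%.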

Assay [2] deals with TIE2 (Homo sapiens, UniProt Q02763). The method, boiled down:
as §1

Assay [3] deals with T2, TAOK2 (Homo sapiens, UniProt Q9UL54).
T2 sequence (Q9UL54 1-1235): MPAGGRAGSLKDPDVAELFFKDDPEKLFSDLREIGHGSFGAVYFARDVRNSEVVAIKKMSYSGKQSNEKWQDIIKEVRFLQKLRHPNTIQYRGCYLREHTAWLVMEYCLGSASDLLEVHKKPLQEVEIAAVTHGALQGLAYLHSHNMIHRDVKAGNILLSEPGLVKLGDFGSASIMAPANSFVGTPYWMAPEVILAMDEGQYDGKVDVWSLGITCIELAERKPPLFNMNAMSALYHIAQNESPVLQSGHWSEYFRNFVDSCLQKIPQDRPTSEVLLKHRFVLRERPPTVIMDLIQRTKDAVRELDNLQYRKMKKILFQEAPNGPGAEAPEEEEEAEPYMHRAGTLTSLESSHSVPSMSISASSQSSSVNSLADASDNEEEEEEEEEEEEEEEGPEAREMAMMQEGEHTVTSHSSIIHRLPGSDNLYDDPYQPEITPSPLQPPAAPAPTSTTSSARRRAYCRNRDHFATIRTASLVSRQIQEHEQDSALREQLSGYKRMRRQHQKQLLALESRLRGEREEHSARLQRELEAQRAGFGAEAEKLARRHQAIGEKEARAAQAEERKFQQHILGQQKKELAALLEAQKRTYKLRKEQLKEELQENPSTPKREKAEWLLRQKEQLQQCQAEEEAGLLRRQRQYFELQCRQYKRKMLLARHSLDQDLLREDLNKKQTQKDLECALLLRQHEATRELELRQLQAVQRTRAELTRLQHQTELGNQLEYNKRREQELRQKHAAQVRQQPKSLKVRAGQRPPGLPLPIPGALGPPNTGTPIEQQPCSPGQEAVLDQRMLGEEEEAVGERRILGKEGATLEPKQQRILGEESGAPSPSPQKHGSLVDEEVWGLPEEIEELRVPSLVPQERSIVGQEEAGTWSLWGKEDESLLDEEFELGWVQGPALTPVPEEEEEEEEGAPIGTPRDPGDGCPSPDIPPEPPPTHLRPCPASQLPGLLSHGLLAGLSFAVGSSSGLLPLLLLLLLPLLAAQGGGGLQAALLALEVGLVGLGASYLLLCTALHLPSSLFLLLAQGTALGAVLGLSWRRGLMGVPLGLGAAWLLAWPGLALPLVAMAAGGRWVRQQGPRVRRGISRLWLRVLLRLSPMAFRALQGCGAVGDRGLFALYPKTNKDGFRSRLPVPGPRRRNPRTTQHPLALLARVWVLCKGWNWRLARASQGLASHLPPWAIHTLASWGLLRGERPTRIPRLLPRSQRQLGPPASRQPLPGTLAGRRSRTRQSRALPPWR
The method, boiled down: as §1

Assay [4] deals with PDGFR-a (Homo sapiens, UniProt P16234). The method, boiled down:
as §1

A value given as a limit tells only on which side of the number the result lay.

Sequence of PDGFR-a (P16234 24-1089, species assumed): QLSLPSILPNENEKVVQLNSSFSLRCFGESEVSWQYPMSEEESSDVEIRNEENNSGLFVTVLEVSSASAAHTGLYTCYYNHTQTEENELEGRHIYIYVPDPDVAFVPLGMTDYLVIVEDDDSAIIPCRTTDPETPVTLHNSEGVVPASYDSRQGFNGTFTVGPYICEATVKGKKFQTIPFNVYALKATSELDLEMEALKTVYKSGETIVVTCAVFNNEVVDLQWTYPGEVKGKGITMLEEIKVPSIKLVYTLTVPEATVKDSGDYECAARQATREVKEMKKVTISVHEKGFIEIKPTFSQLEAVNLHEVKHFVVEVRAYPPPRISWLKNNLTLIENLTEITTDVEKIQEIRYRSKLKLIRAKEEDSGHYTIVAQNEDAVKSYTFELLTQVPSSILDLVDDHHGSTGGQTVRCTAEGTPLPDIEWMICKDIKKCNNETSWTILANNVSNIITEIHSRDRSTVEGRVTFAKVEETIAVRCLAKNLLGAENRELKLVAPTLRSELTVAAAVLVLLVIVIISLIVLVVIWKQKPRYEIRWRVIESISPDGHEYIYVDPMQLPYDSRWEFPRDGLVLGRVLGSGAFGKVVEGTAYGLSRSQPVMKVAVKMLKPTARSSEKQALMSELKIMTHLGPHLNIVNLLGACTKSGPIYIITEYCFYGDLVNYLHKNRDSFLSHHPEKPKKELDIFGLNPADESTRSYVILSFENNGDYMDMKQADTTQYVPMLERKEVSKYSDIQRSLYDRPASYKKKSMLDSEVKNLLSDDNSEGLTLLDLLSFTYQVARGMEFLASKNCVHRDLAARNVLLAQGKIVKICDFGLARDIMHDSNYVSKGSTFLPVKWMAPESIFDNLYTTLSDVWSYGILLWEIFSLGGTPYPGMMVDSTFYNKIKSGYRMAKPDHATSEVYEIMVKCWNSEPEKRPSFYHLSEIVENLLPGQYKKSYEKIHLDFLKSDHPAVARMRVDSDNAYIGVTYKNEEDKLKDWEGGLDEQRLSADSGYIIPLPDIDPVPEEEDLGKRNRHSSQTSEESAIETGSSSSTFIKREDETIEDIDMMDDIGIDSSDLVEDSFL
Sequence of TIE2 (Q02763 23-1124, species assumed): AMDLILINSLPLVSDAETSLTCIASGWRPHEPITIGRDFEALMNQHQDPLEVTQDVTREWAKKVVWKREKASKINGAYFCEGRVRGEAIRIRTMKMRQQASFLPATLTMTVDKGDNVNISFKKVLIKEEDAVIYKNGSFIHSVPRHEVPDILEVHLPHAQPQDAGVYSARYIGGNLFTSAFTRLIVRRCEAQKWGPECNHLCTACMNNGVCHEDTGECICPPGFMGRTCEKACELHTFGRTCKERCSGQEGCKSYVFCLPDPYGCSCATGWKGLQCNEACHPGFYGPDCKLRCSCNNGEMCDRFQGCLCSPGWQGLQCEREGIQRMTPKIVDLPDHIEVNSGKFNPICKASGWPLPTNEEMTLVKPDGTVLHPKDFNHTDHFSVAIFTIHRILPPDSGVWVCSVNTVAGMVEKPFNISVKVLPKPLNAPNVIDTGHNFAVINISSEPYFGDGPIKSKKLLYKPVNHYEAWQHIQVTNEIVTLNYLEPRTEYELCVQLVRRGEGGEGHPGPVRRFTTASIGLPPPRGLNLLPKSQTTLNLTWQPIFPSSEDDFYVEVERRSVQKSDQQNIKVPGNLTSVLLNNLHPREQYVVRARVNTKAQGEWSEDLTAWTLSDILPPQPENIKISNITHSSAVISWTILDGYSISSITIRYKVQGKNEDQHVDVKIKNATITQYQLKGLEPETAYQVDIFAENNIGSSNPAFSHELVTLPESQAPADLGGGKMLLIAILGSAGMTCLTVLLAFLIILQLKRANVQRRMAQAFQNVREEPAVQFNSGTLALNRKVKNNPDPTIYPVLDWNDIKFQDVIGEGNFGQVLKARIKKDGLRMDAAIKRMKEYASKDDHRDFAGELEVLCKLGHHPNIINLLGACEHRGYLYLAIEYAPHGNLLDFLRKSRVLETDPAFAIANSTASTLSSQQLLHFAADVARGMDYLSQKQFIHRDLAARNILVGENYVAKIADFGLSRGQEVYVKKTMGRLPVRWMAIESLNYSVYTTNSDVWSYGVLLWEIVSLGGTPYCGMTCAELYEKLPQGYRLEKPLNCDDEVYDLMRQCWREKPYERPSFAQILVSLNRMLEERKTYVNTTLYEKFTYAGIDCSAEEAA

Consider `CNC(=O)c1cc(Oc2ccc(NC(=O)c3nc(COC)oc3-c3ccc(F)cc3)cc2F)ccn1` [Compound 30], for which the inhibition (commonly the relative decrease from the control value, in per cent) at 5 µM was 90 to 94% in assay [1], 80 to 89% in assay [2], 50 to 79% in assay [3] and 50 to 79% in assay [4].
With `CSc1nc(C(=O)Nc2ccc(Oc3ccnc(C(=O)NC4COC4)c3)c(F)c2)c(-c2ccc(F)cc2)o1` [Compound 31], the inhibition at 5 µM in assay [1] is 50 to 79%; in assay [2], < 50%; in assay [3], < 50%; in assay [4], < 50%.
For the compound `CNC(=O)c1cc(Oc2ccc(NC(=O)c3nc(OC4CC4)oc3-c3ccc(F)cc3)cc2F)ccn1` [Compound 32], the inhibition at 5 µM in assay [1] is 80 to 89%; in assay [2], 50 to 79%; in assay [3], 50 to 79%; in assay [4], < 50%.
With `[2H]C([2H])([2H])NC(=O)c1cc(Oc2ccc(NC(=O)c3nc(SC)oc3-c3ccc(F)c(F)c3)cc2F)ccn1` [Compound 33], the inhibition at 5 µM in assay [1] is 80 to 89%; in assay [2], < 50%; in assay [3] it was < 50%; in assay [4] it was < 50%.
As to `CNC(=O)c1cc(Oc2ccc(NC(=O)c3nc(SC(C)C)oc3-c3ccc(F)cc3)cc2F)ccn1` [Compound 34], the inhibition at 5 µM is 50 to 79% in assay [1], 80 to 89% in assay [2], 50 to 79% in assay [3] and < 50% in assay [4].
In the case of `[2H]C([2H])([2H])NC(=O)c1cc(Oc2ccc(NC(=O)c3nc(SC)oc3-c3ccc(F)s3)cc2F)ccn1` [Compound 35], the inhibition at 5 µM was 50 to 79% in assay [1], < 50% in assay [2], < 50% in assay [3] and < 50% in assay [4].
Consider `CNC(=O)c1ccc(Oc2ccc(NC(=O)c3nc(Cl)oc3-c3ccc(F)cc3)c(F)c2)cn1` [Compound 36], for which the inhibition at 5 µM in assay [1], in assay [2], in assay [3] and in assay [4] was < 50% in each case.
On to `CSc1nc(C(=O)Nc2ccc(Oc3ccnc(C(=O)NC4COC4)c3)c(F)c2)c(-c2ccc(F)c(F)c2)o1` [Compound 37], for which the inhibition at 5 µM in assay [1], in assay [2], in assay [3] and in assay [4] was < 50% throughout.
For `CNC(=O)c1cc(Oc2ccc(NC(=O)c3nc(OCC(F)(F)F)oc3-c3ccc(F)cc3)cc2F)ccn1` [Compound 38], the inhibition at 5 µM in assay [1] is 50 to 79%; in assay [2] it was 50 to 79%; in assay [3], < 50%; in assay [4], < 50%.
With `COc1nc(C(=O)Nc2ccc(Oc3ccnc(C(=O)NC4COC4)c3)c(F)c2)c(-c2ccc(F)cc2)o1` [Compound 39], the inhibition at 5 µM in assay [1] was 50 to 79%; in assay [2], < 50%; in assay [3], < 50%; in assay [4] it was < 50%.
As for `CSc1nc(C(=O)Nc2ccc(Oc3ccnc(C(=O)NCC(F)(F)F)c3)c(F)c2)c(-c2ccc(F)cc2)o1` [Compound 40], the inhibition at 5 µM is 50 to 79% in assay [1], < 50% in assay [2], < 50% in assay [3] and < 50% in assay [4].
For the compound `CSc1nc(C(=O)Nc2ccc(Oc3ccnc(C(=O)NCCN(C)C)c3)c(F)c2)c(-c2ccc(F)cc2)o1` [Compound 41], the inhibition at 5 µM in assay [1] was 50 to 79%; in assay [2] it was < 50%; in assay [3], < 50%; in assay [4], < 50%.
Turning to `CSc1nc(C(=O)Nc2ccc(Oc3ccnc(C(=O)NC4CCN(C)CC4)c3)c(F)c2)c(-c2ccc(F)cc2)o1` [Compound 42], the inhibition at 5 µM was 50 to 79% in assay [1], < 50% in assay [2], < 50% in assay [3] and < 50% in assay [4].
Regarding `COc1nc(C(=O)Nc2ccc(Oc3ccnc(C(=O)NCC(F)(F)F)c3)c(F)c2)c(-c2ccc(F)cc2)o1` [Compound 43], the inhibition at 5 µM in assay [1], in assay [2], in assay [3] and in assay [4] was < 50% in each case.
